From ChEMBL document CHEMBL5154882, “Discovery of 4-Hydroxyquinazoline Derivatives as Small Molecular BET/PARP1 Inhibitors That Induce Defective Homologous Recombination and Lead to Synthetic Lethality for Triple-Negative Breast Cancer Therapy” (J Med Chem, 2022)
The source made the active and inactive calls. No cut-off for these calls is given here.

Columns and labels:
MDA-MB-468 [1] = assay: Antiproliferative activity against human MDA-MB-468 cells assessed as reduction in cell viability incubated for 72 hrs by MTT assay; type: functional, cell-based; conditions: MDA-MB-468, 72 h
[2] = target: Poly [ADP-ribose] polymerase 1 (Homo sapiens, UniProt P09874); assay: Inhibition of PARP1 (unknown origin) at 1 uM relative to control
MDA-MB-231 [3] = assay: Antiproliferative activity against human MDA-MB-231 cells assessed as reduction in cell viability incubated for 72 hrs by MTT assay; type: functional, cell-based; conditions: MDA-MB-231, 72 h
[4] = target: Bromodomain-containing protein 4 (Homo sapiens, UniProt O60885); assay: Inhibition of BRD4 (unknown origin) at 1 uM relative to control
MDA-MB-468 [5] = assay: Induction of DNA damage in human MDA-MB-468 cells assessed as up-regulation of gammaH2AX expression level at 3 uM by DAPI staining based immunofluorescence assay; type: functional, cell-based
MDA-MB-231 [6] = assay: Induction of DNA damage in human MDA-MB-231 cells assessed as increase in tail DNA measured at 3 uM after 3 days by comet assay; type: functional, cell-based; conditions: time 3.0 day

Poly [ADP-ribose] polymerase 1, sequence (P09874 whole entry): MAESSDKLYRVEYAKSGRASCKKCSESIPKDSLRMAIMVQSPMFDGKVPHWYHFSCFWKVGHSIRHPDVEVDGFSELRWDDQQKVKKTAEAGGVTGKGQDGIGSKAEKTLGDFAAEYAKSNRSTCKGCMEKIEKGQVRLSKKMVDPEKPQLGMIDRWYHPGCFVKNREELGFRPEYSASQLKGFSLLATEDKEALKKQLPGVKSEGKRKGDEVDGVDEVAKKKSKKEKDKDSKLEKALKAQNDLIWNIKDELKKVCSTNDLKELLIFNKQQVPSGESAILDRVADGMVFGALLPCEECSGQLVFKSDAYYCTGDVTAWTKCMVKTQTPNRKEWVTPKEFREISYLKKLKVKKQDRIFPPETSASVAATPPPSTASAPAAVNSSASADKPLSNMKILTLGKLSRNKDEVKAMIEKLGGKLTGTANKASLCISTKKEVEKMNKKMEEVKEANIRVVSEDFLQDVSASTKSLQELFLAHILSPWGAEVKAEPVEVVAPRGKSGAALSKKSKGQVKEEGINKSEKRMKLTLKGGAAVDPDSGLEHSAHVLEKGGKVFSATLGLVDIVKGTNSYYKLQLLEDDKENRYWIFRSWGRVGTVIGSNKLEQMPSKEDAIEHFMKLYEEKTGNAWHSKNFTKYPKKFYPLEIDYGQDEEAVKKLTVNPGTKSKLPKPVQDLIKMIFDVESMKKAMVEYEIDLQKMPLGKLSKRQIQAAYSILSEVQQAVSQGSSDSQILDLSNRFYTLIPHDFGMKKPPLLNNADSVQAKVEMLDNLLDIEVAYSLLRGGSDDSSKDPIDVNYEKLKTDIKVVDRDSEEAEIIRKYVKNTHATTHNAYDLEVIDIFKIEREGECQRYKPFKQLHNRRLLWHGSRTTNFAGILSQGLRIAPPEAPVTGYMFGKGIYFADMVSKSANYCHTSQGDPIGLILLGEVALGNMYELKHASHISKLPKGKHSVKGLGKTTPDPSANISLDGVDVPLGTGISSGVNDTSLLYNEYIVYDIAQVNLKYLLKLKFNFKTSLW

Compound | IC50 (MDA-MB-468 [1]) [µM] | inhibition [2] [%] | IC50 (MDA-MB-231 [3]) [µM] | inhibition [4] [%] | Activity (MDA-MB-468 [5]) | Activity (MDA-MB-231 [6])
O=c1[nH]c(-c2ccc(Cc3n[nH]c(=O)c4ccccc34)c(F)c2)nc2ccc(F)cc12 | 17.2 | 38.2 | 22 | 53.3 | – | –
COc1cc(-c2nc3ccccc3c(=O)[nH]2)ccc1Cc1n[nH]c(=O)c2ccccc12 | > 40 | 46.5 | > 40 | 31.3 | – | –
O=c1[nH]c(-c2cc(Cc3n[nH]c(=O)c4ccccc34)ccc2F)nc2ccccc12 | 29.2 | 59.6 | 31.7 | 31.6 | – | –
COc1cc(OC)c2c(=O)[nH]c(-c3cc(F)cc(Cc4n[nH]c(=O)c5ccccc45)c3)nc2c1 | 7.49 | 82.8 | 9.87 | 63.4 | – | –
O=c1[nH]nc(Cc2cccc(-c3nc4cccc(Cl)c4c(=O)[nH]3)c2)c2ccccc12 | 7.3 | 75.3 | 11 | 64.8 | – | –
O=c1[nH]c(-c2cc(Cc3n[nH]c(=O)c4ccccc34)ccc2F)nc2ccc(F)cc12 | 19.1 | 68.5 | 18.6 | 43.7 | – | –
O=c1[nH]c(-c2ccc(Cc3n[nH]c(=O)c4ccccc34)cc2)nc2ccc(F)cc12 | 14 | 58.2 | 16.5 | 47.2 | – | –
O=c1[nH]c(-c2cc(F)cc(Cc3n[nH]c(=O)c4ccccc34)c2)nc2ccccc12 | 14.2 | 84.5 | 17.7 | 45.5 | – | –
COc1cc(OC)c2c(=O)[nH]c(-c3cccc(Cc4n[nH]c(=O)c5ccc(Cl)cc45)c3)nc2c1 | 12.8 | 43.2 | 15.5 | 72.2 | – | –
COc1ccc2nc(-c3ccc(Cc4n[nH]c(=O)c5ccccc45)c(F)c3)[nH]c(=O)c2c1 | 19.4 | 39.4 | 25.2 | 51.5 | – | –
O=c1[nH]c(-c2cccc(Cc3n[nH]c(=O)c4ccccc34)c2)nc2ccccc12 | 16.2 | 82.4 | 21.3 | 47.2 | – | –
COc1cc(-c2nc3ccc(F)cc3c(=O)[nH]2)ccc1Cc1n[nH]c(=O)c2ccccc12 | 31.4 | 36.1 | 26 | 41.5 | – | –
Cc1cccc2c(=O)[nH]c(-c3cc(Cc4n[nH]c(=O)c5ccccc45)ccc3F)nc12 | 35.6 | 61 | 38.2 | 31.2 | – | –
COc1cc(OC)c2c(=O)[nH]c(-c3ccc(Cc4n[nH]c(=O)c5ccccc45)c(OC)c3)nc2c1 | 25.3 | 35.3 | 27.7 | 51 | – | –
O=c1[nH]nc(Cc2cc(F)cc(-c3nc4cccc(Cl)c4c(=O)[nH]3)c2)c2ccccc12 | 14.7 | 75.1 | 13.4 | 52.8 | – | –
COc1ccc2nc(-c3cc(F)cc(Cc4n[nH]c(=O)c5ccccc45)c3)[nH]c(=O)c2c1 | 12.3 | 72.1 | 15.3 | 51.3 | – | –
O=c1[nH]c(-c2cc(F)cc(Cc3n[nH]c(=O)c4ccccc34)c2)nc2ccc(F)cc12 | 12.1 | 77.5 | 13.2 | 51.2 | – | –
COc1ccc2nc(-c3cccc(Cc4n[nH]c(=O)c5ccccc45)c3)[nH]c(=O)c2c1 | 5.43 | 78.4 | 8.71 | 61.2 | – | –
COc1ccc2nc(-c3ccc(Cc4n[nH]c(=O)c5ccccc45)cc3)[nH]c(=O)c2c1 | 16 | 57.4 | 19.1 | 45.5 | – | –
COc1cc(-c2nc3cccc(Cl)c3c(=O)[nH]2)ccc1Cc1n[nH]c(=O)c2ccccc12 | 34.7 | 33.9 | 35.1 | 43.3 | – | –
Cc1cccc2nc(-c3ccc(Cc4n[nH]c(=O)c5ccccc45)c(F)c3)[nH]c(=O)c12 | > 40 | 34.8 | > 40 | 38.2 | – | –
O=c1[nH]c(-c2ccc(Cc3n[nH]c(=O)c4ccccc34)cc2)nc2ccc(Br)cc12 | 18.8 | 53.3 | 24.5 | 46 | – | –
Cc1cccc2nc(-c3cc(F)cc(Cc4n[nH]c(=O)c5ccccc45)c3)[nH]c(=O)c12 | 15.4 | 76.4 | 15.4 | 47.8 | – | –
Cc1cccc2nc(-c3cccc(Cc4n[nH]c(=O)c5ccccc45)c3)[nH]c(=O)c12 | 15.4 | 76.3 | 24.6 | 49.6 | – | –

Compound | IC50 (MDA-MB-468 [1]) [µM] | inhibition [2] [%] | IC50 (MDA-MB-231 [3]) [µM] | inhibition [4] [%] | Activity (MDA-MB-468 [5]) | Activity (MDA-MB-231 [6])
O=c1[nH]c(-c2cc(Cc3n[nH]c(=O)c4ccccc34)ccc2F)nc2ccc(Cl)cc12 | 20.8 | 68.6 | 21.1 | 42.6 | – | –
O=c1[nH]nc(Cc2ccc(-c3nc4cccc(Cl)c4c(=O)[nH]3)cc2)c2ccccc12 | 15.4 | 58.5 | 21 | 48.9 | – | –
Cc1cccc2nc(-c3ccc(Cc4n[nH]c(=O)c5ccccc45)cc3)[nH]c(=O)c12 | 24.1 | 52.6 | 28.9 | 31.7 | – | –
O=c1[nH]c(-c2cc(Cc3n[nH]c(=O)c4ccccc34)ccc2F)nc2ccc(Br)cc12 | 19.5 | 76.8 | 24.1 | 39.5 | – | –
Cc1cc(-c2nc3ccc(Br)cc3c(=O)[nH]2)ccc1Cc1n[nH]c(=O)c2ccccc12 | 24.5 | 43.8 | 28.2 | 52.3 | – | –
O=c1[nH]c(-c2ccc(Cc3n[nH]c(=O)c4ccccc34)c(F)c2)nc2ccccc12 | 29.7 | 47.2 | 31.5 | 35.1 | – | –
COc1ccc2nc(-c3cc(Cc4n[nH]c(=O)c5ccccc45)ccc3F)[nH]c(=O)c2c1 | 24.2 | 70.7 | 22.8 | 41 | – | –
COc1cc(OC)c2c(=O)[nH]c(-c3ccc(Cc4n[nH]c(=O)c5ccccc45)cc3)nc2c1 | 14.1 | 59.2 | 17 | 58.2 | – | –
O=c1[nH]c(-c2cccc(Cc3n[nH]c(=O)c4ccccc34)c2)nc2ccc(F)cc12 | 6.3 | 74.7 | 9.15 | 64.8 | – | –
COc1ccc2nc(-c3ccc(Cc4n[nH]c(=O)c5ccccc45)c(OC)c3)[nH]c(=O)c2c1 | 28.3 | 36.7 | 33.6 | 45.2 | – | –
COc1cc(OC)c2c(=O)[nH]c(-c3ccc(Cc4n[nH]c(=O)c5ccccc45)c(F)c3)nc2c1 | 25.5 | 35.9 | 28.3 | 63.5 | – | –
Cc1cc(-c2nc3ccc(F)cc3c(=O)[nH]2)ccc1Cc1n[nH]c(=O)c2ccccc12 | 20.2 | 49.5 | 25.1 | 54.2 | – | –
COc1cc(OC)c2nc(-c3cc(Cc4n[nH]c(=O)c5ccccc45)ccc3F)[nH]c(=O)c2c1 | 18.6 | 72 | 22.1 | 47.5 | – | –
COc1cc(OC)c2nc(-c3ccc(Cc4n[nH]c(=O)c5ccccc45)c(C)c3)[nH]c(=O)c2c1 | 13 | 55 | 17.9 | 67.8 | – | –
O=c1[nH]nc(Cc2ccc(F)c(-c3nc4cccc(Cl)c4c(=O)[nH]3)c2)c2ccccc12 | 21.6 | 72.8 | 23.3 | 40.9 | – | –
O=c1[nH]c(-c2ccc(Cc3n[nH]c(=O)c4ccccc34)cc2)nc2ccccc12 | 25.4 | 63.8 | 25 | 33 | – | –
O=c1[nH]c(-c2ccc(Cc3n[nH]c(=O)c4ccccc34)cc2)nc2ccc(Cl)cc12 | 17 | 52.3 | 17.1 | 49.3 | – | –
COc1cc(-c2nc3cccc(C)c3c(=O)[nH]2)ccc1Cc1n[nH]c(=O)c2ccccc12 | > 40 | 37.2 | > 40 | 34.4 | – | –
O=C(c1cc(Cc2n[nH]c(=O)c3ccccc23)ccc1F)N1CCN(C(=O)C2CC2)CC1 | – | – | – | – | Active | Active
O=c1[nH]c(-c2cc(F)cc(Cc3n[nH]c(=O)c4ccccc34)c2)nc2ccc(Cl)cc12 | 12.3 | 78 | 15 | 54.5 | – | –
O=c1[nH]nc(Cc2ccc(-c3nc4cccc(Cl)c4c(=O)[nH]3)cc2F)c2ccccc12 | 21.2 | 38.5 | 22 | 53.4 | – | –
Cc1cc(-c2nc3cccc(C)c3c(=O)[nH]2)ccc1Cc1n[nH]c(=O)c2ccccc12 | 29.6 | 47.6 | > 40 | 36.8 | – | –
Cc1cc(-c2nc3ccccc3c(=O)[nH]2)ccc1Cc1n[nH]c(=O)c2ccccc12 | 28.2 | 46.3 | 36 | 42.1 | – | –
COc1cc(-c2nc3ccc(Cl)cc3c(=O)[nH]2)ccc1Cc1n[nH]c(=O)c2ccccc12 | 35.6 | 37.1 | 30.6 | 45.8 | – | –
